Laboratory results from patent US20070275091A1, “Compositions And Methods For Improved Mucus Function” (priority 2004, published 2007).
Entries after “also recorded” stand apart in the source; their conditions may differ.

Experiments:
[1] = tested on: frog palate mucociliary clearance; assay: Frog palate mucociliary transport, agent applied topically; set-up: species or system Rana catesbiana
Procedure: (§1) The displacement of a 1-5 μL of endogenous frog mucus sample is timed as the trailing edge moves across a predetermined segment. MTV is calculated by dividing the distance traveled by the time elapsed, based on at least five measurements of the time required for the mucus sample to travel the defined distance (3).
In FIG. 4A, the effect of a mucomodulating agent (CaCl2) on mucociliary transport time is shown compared to Frog Ringers (FR) solution. Both solutions (FR and CaCl2) were applied topically to the palate in a volume of 5 μL. Thirty seconds were allowed for dispersion of the agent on the palate, followed by the measurement of mucociliary transport time. A droplet of mucus from the palate was placed on palate toward the mouth opening. Ciliary action transported the droplet down the palate. The measurement process (timing the movement of the droplet down the palate over a set distance of 4 mm as observed through a stereomicroscope with a reticulated eyepiece) was repeated five times and averaged to give a mean transport time for each solution.
As described above, mucomodulator solutions were applied topically to the palate in a volume of 5 μl. After 30 seconds to allow dispersion of the agent on the palate, measurements of mucociliary transport time were taken. None of the agents tested on the frog palate had any significant effect on mucociliary clearance until the highest delivered concentrations. Variations at low concentrations were due to variations in baseline frog palate mucociliary activity.

[2] = tested on: mucus from the frog palate; details: 5 μL of 0.1 M solution applied topically
From the text: From a bullfrog, Rana catesbiana, the upper portion of the head is removed modifying the procedures described in previous works. This is done by pithing the frog after lowering the body temperature to abolish pain sensation, and then cutting with scissors through from the junction of the posterior pharynx and esophagus out to the skin of the back. The palate is checked for macroscopic lesions, such as ulcers, or evidence of inflammation. The palate is then placed inside the frog chamber, a wooden box with a glass top and fitted glass front and manipulated through glove openings, and viewed under a dissecting stereomicroscope provided with a reticulated eyepiece. Humidity inside the box is maintained at 100% using a Pari nebulizer; the box is maintained at room temperature (22° to 24° C.). Before carrying out any measurement, the palate is allowed to stabilize inside the box for 15 minutes.
Samples of mucus and tissue are placed in 2.5% glutaraldehyde solution immediately after collection and stored at 4° C. until processing. Briefly, the samples are post-fixed in 1% osmium tetroxide in Millonig's buffer at room temperature for one hour. They are then washed briefly in a series of ethanol (50-100%), ten minutes at each step, followed by two additional periods of absolute ethanol (10 minutes each). […]

[3] = Simulated cough machine, expectoration of mucus simulant
From the text: The simulated cough machine system comprises the following elements: A 10-L tank with compressed air, which serves as a pressure reservoir that generates airflow, simulating the lungs during a cough maneuver. The pressure generated prior to a normal adult cough is approximately 8 psi pressure. This pressure value was used to simulate the airflow pattern of a human cough for each trial.
The model “trachea” is a 28 cm long rigid acrylic tube with a circular 2.5 cm cross-section. It has an 8 cm removable portion to allow us to measure the weight of the sample of mucus simulant loaded before and immediately after each “cough” maneuver. A solenoid valve located between the pressure reservoir and the model trachea control the gas released from the tank.
An aliquot of sputum or mucus simulant is layered on the bottom of the model trachea and driven forward by the pressurized gas. […] Displacement of the MS sample loaded, expressed in millimeters, is measured from the initial placement to the farthest point with a visible bulk concentration of mucus. […]
Mucus simulants (MS) were exposed to airflow in a simulated cough machine (SCM). […] Mucociliary clearance of the MS was assessed on the frog palate (FIG. 5A), elasticity in the Filancemeter (FIG. 6A) and the aerosol pattern in a “bulls-eye” target (FIG. 6B). […]

[4] = Filancemeter spinnability of mucus simulant; type: physicochemical; details: model studies using vegetable polysaccharides
Procedure: (§2) Mucus simulants (MS) were exposed to airflow in a simulated cough machine (SCM). The MS ranged from non-viscous, non-elastic substances (water—control) to MS of varying degrees of viscosity and elasticity. Mucin crosslinking was increased by adding sodium tetraborate (mucomodulator B) to viscous solutions of locust bean gum (Sigma). Mucociliary clearance of the MS was assessed on the frog palate (FIG. 5A), elasticity in the Filancemeter (FIG. 6A) and the aerosol pattern in a “bulls-eye” target (FIG. 6B). The sample loaded was weighed before and after each cough maneuver to achieve a measure of expectoration (FIG. 5B).

[5] = tested on: frog palate epithelial model; assay: Mucociliary clearance of borate-treated mucus simulant on frog palate; set-up: species or system Rana catesbiana; details: control native frog palate mucus 24 mm/min
Procedure: as §1, §2

[6] = tested on: tracheal mucociliary clearance; assay: Tracheal mucus velocity in anesthetized dogs; type: in vivo; details: for TMV: 7 mL over 20 min, jet nebulizer; for thread formation capability (a measure of elasticity) of the tracheal mucus: after aerosol exposure, not in sham or saline
Procedure: The mucomodulator aerosols were delivered to the intubated, spontaneously breathing dogs by jet nebulizer aerosol (7 mL over 20 min). Three aerosol concentrations were delivered: Low=0.001M; Med 0.01M; High=0.1M.
The following was assessed: cardio-respiratory pattern, tracheal mucus clearance, airway patency, and mucus viscoelasticity changes.

[7] = Aerosol pattern on bulls-eye target, simulated cough machine; details: increasing amounts added, 1.5 μL to 150 μL
Procedure: as §2

In the case of `[Ca+2].[Cl-].[Cl-]` [CaCl2, calcium chloride], the “mucociliary transport time compared to Frog Ringers” value ([1]; 5 μL topical, 30 s dispersion, 4 mm distance) is reported as “no significant effect; also recorded: did not alter the mucus transit time” and the “effect on mucus on the surface of the palate (SE micrograph)” value [2] is reported as “causes “clumping” of the mucus”.

With `[Na+].[Na+].[O-]B1OB2OB([O-])OB(O1)O2` [XL “B”, sodium tetraborate] the “amount of MS expelled from the SCM” value ([3]; 1.5 μL added) was 47%, the “amount of MS expelled from the SCM” value ([3]; 150 μL added) was 96% and the “elasticity relative to viscosity” value [4] was “preferentially raises elasticity relative to viscosity”. For the same molecule, the “mucociliary transport rate of treated mucus simulants (means)” value [5] was 16-20 mm/min, the TMV ([6]; High = 0.1M aerosol) was 4.3 ± 1.53 mm/min and the TMV ([6]; Low = 0.001M aerosol) was 3.88 ± 1.66 mm/min. The TMV ([6]; Med = 0.01M aerosol) was 4.96 ± 1.99 mm/min, the “thread formation capability (a measure of elasticity) of the tracheal mucus” value [6] was “increase” and the “particles in the aerosolization pattern” value [7] was “reduced to almost disappear”.

HMW dextran [XL “D”] showed a TMV ([6]; High = 0.1M aerosol) of 3.85 ± 2.2 mm/min, a TMV ([6]; Low = 0.001M aerosol) of 4.43 ± 3.83 mm/min and a TMV ([6]; Med = 0.01M aerosol) of 3.77 ± 1.65 mm/min. For the same molecule, the “thread formation capability (a measure of elasticity) of the tracheal mucus” value [6] was “increase”.

With poly-L-arginine [Mucomodulator A] the mucociliary clearance rate ([1]; 5 μl topical, 10^-8 to 10^-1 M, increasing applied concentration) was “significant increase”.

For polymyxin B [reference compound], the mucociliary clearance ([1]; 5 μl topical, highest concentration) was “sustained decrease” and the mucociliary clearance ([1]; 5 μl topical, intermediate concentration) was “increase”.
